Measurements from patent publication US20230013669A1, “Antibacterial Treatment Using a Cannabinoid and an Active Agent” (priority 2019, published 2023).
“And” between values parts separate entries of the source, which are not always exact repeats. Equal entries are not always repeated.

System: Acinetobacter baumannii ATCC 19606 (GN_034)
Assay: Synergy of cannabidiol with cell-wall disrupting agent (CBD MIC in combination, FICI)
Assay type: cell-based
Settings: for FICI range: CBD with Spero SPR206
Method: The compounds were stored short term at 4° C.
Analysis was performed using Microsoft Excel.

[1] = Example 6, GN_034, listed as CBD

SMILES: C=C(C)C1CCC(C)=CC1c1c(O)cc(CCCCC)cc1O (stereo not shown) [Cannabidiol, 2-[3-methyl-6-(1-methylethenyl)-2-cyclohexen-1-yl]-5-pentyl-1,3-benzenediol]
- FICI range (1st of 3 experiments): 0.25-8
- FICI range (3rd of 3 experiments): 1.5-16
- FICI (CBD with Spero SPR206 at 0.25 μg/mL, 1st of 3 experiments, CBD MIC taken as 256 μg/mL): 0.5
- FICI (CBD with Spero SPR206 at 0.25 μg/mL, 3rd of 3 experiments, CBD MIC taken as 256 μg/mL): 2
- FICI (CBD with Spero SPR206 at 0.5 μg/mL, 1st of 3 experiments, CBD MIC taken as 256 μg/mL): 1
- FICI (CBD with Spero SPR206 at 0.5 μg/mL, 3rd of 3 experiments, CBD MIC taken as 256 μg/mL): 3
- FICI (CBD with Spero SPR206 at 1 μg/mL, 1st of 3 experiments, CBD MIC taken as 256 μg/mL): 2
- FICI (CBD with Spero SPR206 at 1 μg/mL, 3rd of 3 experiments, CBD MIC taken as 256 μg/mL): 4.004 and 4.002
- FICI (CBD with Spero SPR206 at 2 μg/mL, 1st of 3 experiments, CBD MIC taken as 256 μg/mL): 4
- FICI (CBD with Spero SPR206 at 2 μg/mL, 3rd of 3 experiments, CBD MIC taken as 256 μg/mL): 8
- FICI (CBD with Spero SPR206 at 4 μg/mL, 1st of 3 experiments, CBD MIC taken as 256 μg/mL): 8
- FICI (CBD with Spero SPR206 at 4 μg/mL, 3rd of 3 experiments, CBD MIC taken as 256 μg/mL): 16
- FICI (CBD with Spero SPR206 at […], 1st of 3 experiments, CBD MIC taken as 256 μg/mL): 0.25
- FICI (CBD with Spero SPR206 at […], 3rd of 3 experiments, CBD MIC taken as 256 μg/mL): 1.5
- FICI (CBD with Ticarcillin at 2 μg/mL, Acinetobacter baumannii ATCC 19606): 0.625
- FICI (CBD with Ticarcillin at 4 μg/mL, Acinetobacter baumannii ATCC 19606): 1.0625
- FICI (CBD with Ticarcillin at 8 μg/mL, Acinetobacter baumannii ATCC 19606): 2
- FICI (CBD with Ticarcillin at 16 μg/mL, Acinetobacter baumannii ATCC 19606): 4
- FICI (CBD with Ticarcillin at 32 μg/mL, Acinetobacter baumannii ATCC 19606): 8
- FICI (CBD with Ticarcillin at 64 μg/mL, Acinetobacter baumannii ATCC 19606): 16
- FICI range (MIC table) (CBD with Ticarcillin, Acinetobacter baumannii ATCC 19606): 0.63-16
- CBD MIC with Cefepime (Cefepime at 4 μg/mL): 32 µg/mL
- CBD MIC with Cefepime (Cefepime at 8 μg/mL): 16 µg/mL
- CBD MIC with Cefotetan (Cefotetan at 4 μg/mL): >32 µg/mL
- CBD MIC with Cefotetan (Cefotetan at 4 μg/mL, Acinetobacter baumannii ATCC 19606): >256 µg/mL
- CBD MIC with Cefotetan (Cefotetan at 8 μg/mL): >32 µg/mL
- CBD MIC with Cefotetan (Cefotetan at 8 μg/mL, Acinetobacter baumannii ATCC 19606): >256 µg/mL
- CBD MIC with Cefotetan (Cefotetan at 16 μg/mL): >32 µg/mL
- CBD MIC with Cefotetan (Cefotetan at 16 μg/mL, Acinetobacter baumannii ATCC 19606): >256 µg/mL
- CBD MIC with Cefotetan (Cefotetan at 32 μg/mL): >32 µg/mL
- CBD MIC with Cefotetan (Cefotetan at 32 μg/mL, Acinetobacter baumannii ATCC 19606): >256 µg/mL
- CBD MIC with Cefotetan (Cefotetan at 64 μg/mL): >32 µg/mL
- CBD MIC with Cefotetan (Cefotetan at 64 μg/mL, Acinetobacter baumannii ATCC 19606): >256 µg/mL
- CBD MIC with Cefotetan (Cefotetan at 128 μg/mL): >32 µg/mL
- CBD MIC with Cefotetan (Cefotetan at 128 μg/mL, Acinetobacter baumannii ATCC 19606): >256 µg/mL
- CBD MIC with Ceftazidime (Ceftazidime at 0.015 μg/mL as headed in Table 64, Acinetobacter baumannii ATCC 19606): >256 µg/mL
- CBD MIC with Ceftazidime (Ceftazidime at 0.031 μg/mL as headed in Table 64, Acinetobacter baumannii ATCC 19606): >256 µg/mL
- CBD MIC with Ceftazidime (Ceftazidime at 0.062 μg/mL as headed in Table 64, Acinetobacter baumannii ATCC 19606): >256 µg/mL
- CBD MIC with Ceftazidime (Ceftazidime at 0.25 μg/mL as headed in Table 64, Acinetobacter baumannii ATCC 19606): 16 µg/mL
- CBD MIC with Ceftazidime (Ceftazidime at 0.5 μg/mL (Table 66), Acinetobacter baumannii ATCC 19606): >32 µg/mL
- CBD MIC with Ceftazidime (Ceftazidime at 0.5 μg/mL as headed in Table 64, Acinetobacter baumannii ATCC 19606): 0.001 µg/mL
- CBD MIC with Ceftazidime (Ceftazidime at 1 μg/mL (Table 66), Acinetobacter baumannii ATCC 19606): >32 µg/mL
- CBD MIC with Ceftazidime (Ceftazidime at 2 μg/mL (Table 66), Acinetobacter baumannii ATCC 19606): >32 µg/mL
- CBD MIC with Ceftazidime (Ceftazidime at 4 μg/mL (Table 66), Acinetobacter baumannii ATCC 19606): 32 µg/mL
- CBD MIC with Ceftazidime (Ceftazidime at 8 μg/mL (Table 66), Acinetobacter baumannii ATCC 19606): 16 µg/mL
- CBD MIC with Ceftazidime (Ceftazidime at 16 μg/mL (Table 66), Acinetobacter baumannii ATCC 19606): 0.001 µg/mL
- CBD MIC with Ceftazidime (Ceftazidime at […] as headed in Table 64, Acinetobacter baumannii ATCC 19606): 32 µg/mL
- CBD MIC with Colistin (Colistin at 0.031 μg/mL, Acinetobacter baumannii ATCC 19606): 4 µg/mL
- CBD MIC with Colistin (Colistin at 0.062 μg/mL, Acinetobacter baumannii ATCC 19606): 2 µg/mL
- CBD MIC with Colistin (Colistin at 0.25 μg/mL, Acinetobacter baumannii ATCC 19606): 1 µg/mL
- CBD MIC with Colistin (Colistin at 1 μg/mL, Acinetobacter baumannii ATCC 19606): 0.001 µg/mL
- CBD MIC with Colistin (Colistin at […], Acinetobacter baumannii ATCC 19606): 1 µg/mL
- activity of cannabidiol in combination with Polymyxin B (Example 1): effective
- Average FICI score (Example 1, GN_034, cannabidiol + MCC_006636 (Polymyxin B)): 0.135
- Synergy (Example 1, GN_034, cannabidiol + MCC_006636 (Polymyxin B), synergy when FICI≤0.5): YES
- activity of cannabidiol combined with cefuroxime (Example 2): effective
- CBD MIC with Cefuroxime at concentration 4 μg/mL (Example 2, GN_034): >256 µg/mL
- CBD MIC with Cefuroxime at concentration 8 μg/mL (Example 2, GN_034): >256 µg/mL
- CBD MIC with Cefuroxime at concentration 16 μg/mL (Example 2, GN_034): 32 µg/mL
- CBD MIC with Cefuroxime at concentration 64 μg/mL (Example 2, GN_034): 0.0625 µg/mL
- CBD MIC with Cefuroxime at concentration 128 μg/mL (Example 2, GN_034): 0.0009766 µg/mL
- CBD MIC with Cefuroxime at concentration 32 μg/mL (Example 2, GN_034, listed as CBD): 16 µg/mL and 32 µg/mL
- activity of cannabidiol combined with colistin (Example 3): effective
- CBD MIC with Colistin at concentration 0.03125 μg/mL (Example 3, GN_034): 4 µg/mL
- CBD MIC with Colistin at concentration 0.0625 μg/mL (Example 3, GN_034): 2 µg/mL
- CBD MIC with Colistin at concentration 0.25 μg/mL (Example 3, GN_034): 1 µg/mL
- CBD MIC with Colistin at concentration 1 μg/mL (Example 3, GN_034): 0.0009766 µg/mL
- CBD MIC with Colistin at concentration […] (Example 3, GN_034): 1 µg/mL
- activity of cannabidiol combined with octapeptin MCC_006442 (Example 4): effective
- activity of cannabidiol combined with aztreonam (Example 5): effective
- activity of cannabidiol combined with cefepime (Example 5): effective
- CBD MIC with Aztreonam at concentration 0.5 μg/mL (Example 5, GN_034): >256 µg/mL
- CBD MIC with Aztreonam at concentration 1 μg/mL (Example 5, GN_034): >256 µg/mL
- CBD MIC with Aztreonam at concentration 2 μg/mL (Example 5, GN_034): >256 µg/mL
- CBD MIC with Aztreonam at concentration 4 μg/mL (Example 5, GN_034): 32 µg/mL
- CBD MIC with Aztreonam at concentration 8 μg/mL (Example 5, GN_034): 32 µg/mL
- CBD MIC with Aztreonam at concentration 16 μg/mL (Example 5, GN_034): 0.0009766 µg/mL
- CBD MIC with Cefepime at concentration 0.25 μg/mL (Example 5, GN_034): >256 µg/mL
- CBD MIC with Cefepime at concentration 0.5 μg/mL (Example 5, GN_034): >256 µg/mL
- CBD MIC with Cefepime at concentration 1 μg/mL (Example 5, GN_034): >256 µg/mL
- CBD MIC with Cefepime at concentration 2 μg/mL (Example 5, GN_034): >256 µg/mL
- CBD MIC with Cefepime at concentration 4 μg/mL (Example 5, GN_034): 32 µg/mL
- CBD MIC with Cefepime at concentration 8 μg/mL (Example 5, GN_034): 16 µg/mL
- activity of cannabidiol combined with Polymyxin B (Example 6): effective
- CBD MIC with Polymyxin B at concentration 0.015625 μg/mL (Example 6, GN_034): >256 µg/mL
- CBD MIC with Polymyxin B at concentration 0.03125 μg/mL (Example 6, GN_034): >256 µg/mL
- CBD MIC with Polymyxin B at concentration 0.0625 μg/mL (Example 6, GN_034): >256 µg/mL
- CBD MIC with Polymyxin B at concentration 0.5 μg/mL (Example 6, GN_034): 0.0009766 µg/mL
- CBD MIC with Polymyxin B at concentration 0.25 μg/mL [1]: 8 µg/mL and 4 µg/mL
- CBD MIC with Polymyxin B at concentration […] [1]: 16 µg/mL and 8 µg/mL
- activity of cannabidiol in combination with octapeptin MCC_006442 (Example 7): effective
- activity of cannabidiol combined with cefuroxime (Example 12): effective
- activity of cannabidiol combined with colistin (Example 14): effective
- activity of cannabidiol combined with octapeptin MCC_006442 (Example 15): effective
- activity of cannabidiol combined with aztreonam (Example 18): effective
- activity of cannabidiol combined with cefepime (Example 19): effective
- activity of cannabidiol combined with octapeptin C4 (Example 21): effective
- activity of cannabidiol in combination with Spero Potentiator SPR741 (Example 22): effective
- activity of cannabidiol in combination with Spero SPR206 (Example 22): effective
- activity of cannabidiol in combination with octapeptin FADDI-287 (Example 23): effective
- activity of cannabidiol in combination with MCC_8980 (Example 24): effective
- CBD MIC with Octapeptin C4 (Octapeptin C4 at 2 μg/mL, listed as CBD): 16 µg/mL
- CBD MIC with Spero SPR206 (Spero SPR206 at 1 μg/mL, 3rd of 3 experiments, listed as CBD): 0.5 µg/mL
- CBD MIC with Ticarcillin (Ticarcillin at 16 μg/mL, Acinetobacter baumannii ATCC 19606): 0.001 µg/mL
- CBD MIC with Ticarcillin (Ticarcillin at 32 μg/mL, Acinetobacter baumannii ATCC 19606): 0.001 µg/mL
- CBD MIC with Ticarcillin (Ticarcillin at 64 μg/mL, Acinetobacter baumannii ATCC 19606): 0.001 µg/mL
